In PMC7179399, “Development and Characterization of the Shortest Anti-Adhesion Peptide Analogue of B49Mod1” (Molecules, 2020):
Ends that are not written are not given here.

Experiments:
Conditions in all cases: 24 h
[1] = system: human peripheral blood mononuclear cells (PBMCs); test: MTT viability assay, PBMCs; type: cell-based
Text: Cell Lines: MDA-MB-468, MDA-MB-231, ZR-75-1, MCF7, and T47D were obtained from the Physical Sciences-Oncology Network (PS-ON) Bioresource Core Facility (PBCF) at American Type Culture Collection (ATCC, Manassas, VA, USA). SKBR3 cell line was a kind gift from Dr. Hyungjin Kim at Stony Brook University. ZR-75-1, MCF7, and T47D were maintained in complete RPMI 1640 media. MDA-MB-468, MDA-MB-231, and SKBR3 were maintained in complete DMEM media. Both complete RPMI and DMEM were supplemented with 10% FBS, 1% penicillin-streptomycin, 1 µg/mL Amphotericin B, 1% of l-glutamine, 2 mM sodium pyruvate, and 10 mM HEPES buffer at pH 8. Human Peripheral Blood Mononuclear Cells (PBMCs) were isolated from fresh human blood by Ficoll-Paque PLUS and cultured in complete RPMI 1640 media.
(§1) Viability Assay: Equivalent numbers of cells from each cell line was seeded in 96-well plate and incubated at 37 °C for 24 hours before treatment. The cells were treated with different concentration of peptides and incubated for 24 hours at 37 °C. 20 µl of 5mg/ml of MTT reagent was added to each well and incubated for 4 hours at 37 °C. The supernatant was then removed, followed by addition of 150 µl of MTT solvent, with shaking 15 min at room temperature. Absorbance at 590 nm was then measured through the BioTek Synergy H1 microplate reader.

[2] = system: SKBR3; type: cell-based, human
Protocol: as §1

[3] = system: MCF7; type: cell-based, human
Protocol: as §1

GFQDVEAQAATCNHTVMA [B18]
cytotoxic effect on quiescent PBMCs [1]: no cytotoxic effect was observed
IC50 [2]: 11.2 ± 3.4 µM
IC50 [3]: 59.8 ± 5.3 µM
